# According to patent US20250257055A1, “TERTIARY AMIDE DERIVATIVES SUBSTITUTED WITH 4-MEMBERED RING STRUCTURE” (Sumitomo Pharma Co., Ltd., priority 2024, published 2025):
# Where two headings read alike, the source gives them in different places.
# Tests used:
# [1] = Membrane permeability test (PAMPA); type: in vitro ADME
# Outline: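 Donor compartment held compound in system solution over a GIT Lipid-0 membrane, with sink buffer on the acceptor side; incubation 4 h at 37° C. Donor and acceptor concentrations were read by UV (190-500 nm), or by LC-MS for weakly absorbing compounds, and Pe (10^−6 cm/sec) was calculated.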
# [2] = test system: Kuramochi cells; experiment: Cell proliferation inhibition experiment using Kuramochi cells; type: cell-based; details: 144 h, cultured for 6 days, CellTiter-Glo
# Procedure: Kuramochi cells (derived from ovarian cancer) were obtained from JCRB (Japanese Collection of Research Bioresources) cell bank. Kuramochi cells were cultured in RPMI-1640 medium containing 10% fetal bovine serum and 1% penicillin/streptomycin under conditions of 37° C. and 5% CO2.
# (§1) 500 cells per well were seeded in a 384-well plate. One day after seeding, Examples 3, 7, 9, 10, 11, 20, 23 to 25, and 30 to 34 were added so that the final concentration of DMSO was 0.1%, and the cells were cultured for 6 days. After the culture was completed, the cell viability was measured using CellTiter-Glo Luminescent Cell Viability Assay (Promega, G7570).
# [3] = test system: G-401 cells; experiment: Cell proliferation inhibition experiment using G-401 cells; type: cell-based; details: Homo sapiens, 72 h, cultured for 3 days, CellTiter-Glo
# Outline: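 Malignant rhabdoid tumor-derived cells, grown in McCoy's 5A with 10% FBS, were seeded at 500 cells/well and dosed one day later (final DMSO 0.1%). After 3 days of culture at 37° C, viability was read by CellTiter-Glo luminescence.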
# [4] = biological target: recombinant p300 (Homo sapiens (Human), UniProt Q09472); experiment: HAT activity inhibition experiment (SensoLyte HAT(p300) Assay Kit); type: biochemical; details: recombinant p300, histone H3 peptide, acetyl CoA
# Outline: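 Recombinant human p300 preincubated with compound 10 min at room temperature, then acetyl-CoA and histone H3 peptide added and reacted 30 min at 37 °C. After stop, developer added for 30 min at room temperature in the dark; fluorescence read at Ex 389/Em 513 nm.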
# [5] = Pharmacokinetic study in mice; type: in vivo; details: for AUC / clearance / half-life / Vd / Cmax: female, BALB/c (BALB/cAnN CrlCrlj), mouse, plasma; for Vd: read-out: Vdss
# Procedure: The test compound was administered to 7-week-old female BALB/c (BALB/cAnN CrlCrlj) mice intravenously (dosage: 1 mg/kg) in a 50% PEG solution (0.01 mol/L HCl) or orally (dosage: 10 mg/kg) in a 0.5% methylcellulose aqueous solution, and blood was collected at the following times:
# Intravenous administration: 5 min, 15 min, 30 min, 1 hr, 2 hr, 4 hr, 6 hr, and 24 hr after administration
# Oral administration: 15 min, 30 min, 1 hr, 2 hr, 4 hr, 6 hr, and 24 hr after administration
# The collected blood was centrifuged at 3000 rpm×10 min using a refrigerated centrifuge set at 4° C., and the obtained plasma was measured by LC-MS. A calibration curve was prepared from the value (peak ratio) obtained by dividing the peak area of the test substance by the peak area of the internal standard substance in MS and the concentration of the plasma calibration curve sample. The concentration in the sample was calculated from the peak ratio and the calibration curve of each sample.
# [6] = test system: RMGI cells; experiment: Cell proliferation inhibition experiment using RMGI cells; type: cell-based; details: Homo sapiens, RMG-I, 144 h, cultured for 6 days, CellTiter-Glo
# Procedure: RMGI cells (derived from ovarian cancer) were obtained from JCRB cell bank. RMGI cells were cultured in Ham's F12 medium containing 10% fetal bovine serum and 1% penicillin/streptomycin under conditions of 37° C. and 5% CO2.
# as §1, with “200” for “500”, “20, and” for “20,”, “25” for “25, and 30 to 34”
# [7] = biological target: hDAT (Homo sapiens (Human), UniProt Q01959); experiment: Dopamine receptor inhibitory activity evaluation (binding assay, CHO-S/hDAT membranes); details: CHO-S/hDAT membrane preparation
# Procedure: The binding evaluation assay was outsourced to Eurofins. Specifically, CHO-S/hDAT cells were homogenized in an incubation buffer consisting of 50 mmol/L Tris-HCl, pH 7.4, 100 mmol/L NaCl, 1 μmol/L Leupeptin, and 10 μmol/L PMSF. The membrane pellet obtained by centrifugation was resuspended in the incubation buffer to prepare a membrane preparation. The test compound (1-10 μmol/L DMSO solution), the membrane preparation, and 0.15 nmol/L […] were mixed and incubated at 4° C. for 180 minutes. The cell membrane-[^125I]RTI-55 complex was bound to a GF/B filter mat by vacuum filtration and washed with 50 mmol/L Tris-HCl, pH 7.4. The effect on the receptor was assessed by measuring radioactivity using a scintillation counter.
# [8] = biological target: hSERT (Homo sapiens (Human), UniProt P31645); experiment: Serotonin receptor inhibitory activity evaluation (binding assay, HEK293/hSERT membranes); details: HEK293/hSERT membrane preparation, [3H]Paroxetin
# Procedure: The binding evaluation assay was outsourced to Eurofins. Specifically, HEK293/hSERT cells were homogenized in a buffer consisting of 100 mmol/L NaCl, 1 μmol/L Leupeptin, 10 μmol/L PMSF, and 50 mmol/L Tris-HCl (pH7.4). The membrane pellet obtained by centrifugation was resuspended in an incubation buffer consisting of 50 mmol/L Tris-HCl (pH 7.4), 120 mmol/L NaCl, and 5 mmol/L KCl to prepare a membrane preparation. The test compound (1-10 μmol/L DMSO solution), the membrane preparation, and 0.4 nmol/L [^3H]Paroxetin were mixed and incubated at 25° C. for 60 minutes. The cell membrane-[^3H]Paroxetin complex was bound to a GF/B filter mat by vacuum filtration and washed with 50 mmol/L Tris-HCl (pH 7.4). The effect on the receptor was assessed by measuring radioactivity using a scintillation counter.
# [9] = pH 5.0, 37° C., read-out: pH 5.0 Pe
# [10] = pH 7.4, 37° C., read-out: pH 7.4 Pe
# recombinant p300, sequence (Q09472 whole entry): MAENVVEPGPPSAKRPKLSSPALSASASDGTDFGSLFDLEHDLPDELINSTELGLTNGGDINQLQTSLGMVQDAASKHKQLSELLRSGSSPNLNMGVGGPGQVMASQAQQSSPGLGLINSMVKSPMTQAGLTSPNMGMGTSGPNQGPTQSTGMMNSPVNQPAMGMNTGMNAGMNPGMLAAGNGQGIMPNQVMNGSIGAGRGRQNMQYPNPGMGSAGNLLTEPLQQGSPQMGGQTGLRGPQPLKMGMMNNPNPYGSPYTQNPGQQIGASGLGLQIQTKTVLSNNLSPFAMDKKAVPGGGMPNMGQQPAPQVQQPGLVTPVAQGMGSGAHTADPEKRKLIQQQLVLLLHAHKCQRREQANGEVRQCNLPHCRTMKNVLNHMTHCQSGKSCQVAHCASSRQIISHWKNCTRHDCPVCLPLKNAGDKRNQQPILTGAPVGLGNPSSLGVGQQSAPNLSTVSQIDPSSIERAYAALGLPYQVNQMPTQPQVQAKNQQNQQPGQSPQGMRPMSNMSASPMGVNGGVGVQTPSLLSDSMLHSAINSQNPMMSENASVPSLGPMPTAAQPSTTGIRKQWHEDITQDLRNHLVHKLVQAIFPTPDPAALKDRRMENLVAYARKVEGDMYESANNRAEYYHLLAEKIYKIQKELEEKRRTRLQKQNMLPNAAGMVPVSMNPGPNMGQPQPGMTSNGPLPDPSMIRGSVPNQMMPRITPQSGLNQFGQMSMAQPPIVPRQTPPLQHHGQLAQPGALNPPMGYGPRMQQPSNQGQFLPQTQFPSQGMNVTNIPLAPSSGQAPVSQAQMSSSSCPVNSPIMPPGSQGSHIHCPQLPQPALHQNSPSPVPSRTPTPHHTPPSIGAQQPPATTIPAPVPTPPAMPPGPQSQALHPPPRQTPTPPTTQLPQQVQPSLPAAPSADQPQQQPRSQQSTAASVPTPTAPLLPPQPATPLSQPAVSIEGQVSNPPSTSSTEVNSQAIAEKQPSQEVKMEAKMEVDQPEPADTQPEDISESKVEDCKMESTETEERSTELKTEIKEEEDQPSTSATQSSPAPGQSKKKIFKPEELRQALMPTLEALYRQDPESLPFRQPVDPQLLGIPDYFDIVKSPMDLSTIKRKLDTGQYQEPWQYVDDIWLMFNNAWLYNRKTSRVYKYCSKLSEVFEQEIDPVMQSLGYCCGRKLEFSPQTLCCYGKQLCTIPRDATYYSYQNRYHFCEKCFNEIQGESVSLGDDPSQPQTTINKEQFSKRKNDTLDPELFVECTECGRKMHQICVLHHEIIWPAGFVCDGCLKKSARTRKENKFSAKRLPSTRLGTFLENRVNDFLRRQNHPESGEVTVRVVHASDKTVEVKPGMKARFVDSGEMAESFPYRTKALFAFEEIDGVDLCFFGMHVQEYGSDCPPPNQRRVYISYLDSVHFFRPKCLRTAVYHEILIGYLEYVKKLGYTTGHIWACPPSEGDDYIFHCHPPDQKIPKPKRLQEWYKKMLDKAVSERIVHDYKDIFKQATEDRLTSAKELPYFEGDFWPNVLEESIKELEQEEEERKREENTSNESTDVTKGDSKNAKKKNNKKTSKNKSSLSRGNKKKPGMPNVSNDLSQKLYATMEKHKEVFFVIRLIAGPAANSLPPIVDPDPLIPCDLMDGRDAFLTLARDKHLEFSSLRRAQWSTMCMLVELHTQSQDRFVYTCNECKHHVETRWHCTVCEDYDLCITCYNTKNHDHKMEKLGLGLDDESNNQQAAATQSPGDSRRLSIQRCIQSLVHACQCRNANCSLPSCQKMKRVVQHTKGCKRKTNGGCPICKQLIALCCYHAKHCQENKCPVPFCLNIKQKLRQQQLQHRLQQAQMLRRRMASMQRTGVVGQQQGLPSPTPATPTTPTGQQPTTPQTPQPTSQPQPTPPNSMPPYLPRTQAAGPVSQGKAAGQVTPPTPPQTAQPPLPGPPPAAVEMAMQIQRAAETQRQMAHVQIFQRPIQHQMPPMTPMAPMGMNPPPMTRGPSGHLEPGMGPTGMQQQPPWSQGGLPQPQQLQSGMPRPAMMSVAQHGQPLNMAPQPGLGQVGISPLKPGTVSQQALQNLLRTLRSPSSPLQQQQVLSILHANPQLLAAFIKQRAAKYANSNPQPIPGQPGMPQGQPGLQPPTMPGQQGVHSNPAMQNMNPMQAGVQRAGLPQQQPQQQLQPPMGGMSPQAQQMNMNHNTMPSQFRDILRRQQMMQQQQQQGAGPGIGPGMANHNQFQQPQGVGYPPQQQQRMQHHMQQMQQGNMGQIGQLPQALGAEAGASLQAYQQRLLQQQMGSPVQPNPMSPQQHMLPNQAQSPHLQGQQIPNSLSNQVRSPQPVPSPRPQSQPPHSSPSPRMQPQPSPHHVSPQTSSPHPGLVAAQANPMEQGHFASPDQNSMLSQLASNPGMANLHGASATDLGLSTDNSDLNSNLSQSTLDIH
# hSERT, sequence (P31645 whole entry): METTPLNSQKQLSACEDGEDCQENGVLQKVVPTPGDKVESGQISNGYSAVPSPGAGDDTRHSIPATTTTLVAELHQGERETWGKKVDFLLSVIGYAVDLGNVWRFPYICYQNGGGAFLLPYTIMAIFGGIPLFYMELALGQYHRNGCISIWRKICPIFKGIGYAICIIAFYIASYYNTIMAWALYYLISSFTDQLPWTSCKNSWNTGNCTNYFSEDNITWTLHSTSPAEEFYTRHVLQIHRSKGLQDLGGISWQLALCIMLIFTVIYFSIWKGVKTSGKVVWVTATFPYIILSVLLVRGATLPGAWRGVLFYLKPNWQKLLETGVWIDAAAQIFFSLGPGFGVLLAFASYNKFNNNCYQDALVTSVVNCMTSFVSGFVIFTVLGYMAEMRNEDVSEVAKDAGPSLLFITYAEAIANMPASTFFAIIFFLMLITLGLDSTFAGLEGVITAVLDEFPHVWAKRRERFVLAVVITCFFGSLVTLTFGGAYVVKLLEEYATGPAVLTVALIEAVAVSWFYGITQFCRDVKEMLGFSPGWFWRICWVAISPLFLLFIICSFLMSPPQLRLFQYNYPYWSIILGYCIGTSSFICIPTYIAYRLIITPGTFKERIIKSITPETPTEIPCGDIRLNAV
# hDAT, sequence (Q01959 whole entry): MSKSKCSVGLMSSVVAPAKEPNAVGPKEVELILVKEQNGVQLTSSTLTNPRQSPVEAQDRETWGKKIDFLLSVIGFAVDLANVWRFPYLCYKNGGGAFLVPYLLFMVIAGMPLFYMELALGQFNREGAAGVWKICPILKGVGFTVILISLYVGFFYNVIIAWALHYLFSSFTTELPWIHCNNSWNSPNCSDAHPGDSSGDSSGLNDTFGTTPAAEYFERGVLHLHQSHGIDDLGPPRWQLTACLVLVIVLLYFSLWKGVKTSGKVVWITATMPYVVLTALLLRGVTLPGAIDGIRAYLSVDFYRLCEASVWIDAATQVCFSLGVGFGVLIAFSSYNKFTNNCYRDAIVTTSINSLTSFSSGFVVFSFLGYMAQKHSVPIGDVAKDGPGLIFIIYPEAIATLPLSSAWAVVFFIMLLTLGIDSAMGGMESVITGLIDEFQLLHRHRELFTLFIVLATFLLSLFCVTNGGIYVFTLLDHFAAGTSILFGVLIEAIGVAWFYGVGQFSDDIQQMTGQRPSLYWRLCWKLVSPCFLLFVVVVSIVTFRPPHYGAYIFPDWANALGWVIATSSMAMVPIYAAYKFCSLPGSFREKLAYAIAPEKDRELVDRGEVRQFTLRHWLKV
"Papp at 4 h [1, 9] [×10⁻⁶ cm/s]","Papp at 4 h [1, 10] [×10⁻⁶ cm/s]",IC50 [4] [nM],"AUC ([5]; intravenous, 1 mg/kg) [ng·h/mL]","clearance ([5]; intravenous, 1 mg/kg) [mL/min/kg]","half-life ([5]; intravenous, 1 mg/kg) [min]","Vd ([5]; intravenous, 1 mg/kg) [L/kg]","AUC ([5]; oral, 10 mg/kg) [ng·h/mL]","Cmax ([5]; oral, 10 mg/kg) [ng/mL]","BA ([5]; oral, 10 mg/kg) [%]",Compound,IC50 [2] [nM],IC50 [3] [nM],IC50 [6] [nM],inhibition at 10 µM [7] [%],inhibition at 10 µM [8] [%]
14.9,17.7,0.6,764,20.6,108,2,3890,2670,50.9,"O=C1N[C@]2(C[C@@H](F)c3cc(-c4cnn(C5CN(C6COC6)C5)c4)ccc32)C(=O)N1CC(=O)N(Cc1ccc(F)cc1)C1(C(F)(F)F)COC1 [Example 3, 2-[(1′S,3′R)-3′-fluoro-5′-{1-[1-(oxetan-3-yl)azetidin-3-yl]-1H-pyrazol-4-yl}-2,5-dioxo-2′,3′-dihydrospiro[imidazolidine-4,1′-inden]-1-yl]-N-[(4-fluorophenyl)methyl]-N-[3-(trifluoromethyl)oxetan-3-yl]acetamide]",91,44,18,–,–
13.3,15.3,–,1200,11.9,146,2,13100,5370,109.1,"O=C1N[C@]2(C[C@@H](F)c3cc(-c4cnn(C5CN(C6COC6)C5)c4)ccc32)C(=O)N1CC(=O)N(Cc1ccc(F)cn1)C1(C(F)(F)F)CC(F)(F)C1 [Example 9, N-[3,3-difluoro-1-(trifluoromethyl)cyclobutyl]-2-[(1′S,3′R)-3′-fluoro-5′-{1-[1-(oxetan-3-yl)azetidin-3-yl]-1H-pyrazol-4-yl}-2,5-dioxo-2′,3′-dihydrospiro[imidazolidine-4,1′-inden]-1-yl]-N-[(5-fluoropyridin-2-yl)methyl]acetamide]",184,38,24,–,–
24.1,27.2,2.1,446,33.7,127,4.1,2500,1720,56.2,"CN1CC(N(Cc2ccc(F)cc2)C(=O)CN2C(=O)N[C@]3(C[C@@H](F)c4cc(-c5cnn(C(C)(C)C#N)c5)ccc43)C2=O)(C(F)(F)F)C1 [Example 11, 2-{(1′S,3′R)-5′-[1-(2-cyanopropan-2-yl)-1H-pyrazol-4-yl]-3′-fluoro-2,5-dioxo-2′,3′-dihydrospiro[imidazolidine-4,1′-inden]-1-yl}-N-[(4-fluorophenyl)methyl]-N-[1-methyl-3-(trifluoromethyl)azetidin-3-yl]acetamide]",48,10,5,–,–

Compound,"Papp at 4 h [1, 9] [×10⁻⁶ cm/s]","Papp at 4 h [1, 10] [×10⁻⁶ cm/s]",IC50 [4] [nM],"AUC ([5]; intravenous, 1 mg/kg) [ng·h/mL]","clearance ([5]; intravenous, 1 mg/kg) [mL/min/kg]","half-life ([5]; intravenous, 1 mg/kg) [min]","Vd ([5]; intravenous, 1 mg/kg) [L/kg]","AUC ([5]; oral, 10 mg/kg) [ng·h/mL]","Cmax ([5]; oral, 10 mg/kg) [ng/mL]","BA ([5]; oral, 10 mg/kg) [%]",IC50 [2] [nM],IC50 [3] [nM],IC50 [6] [nM],inhibition at 10 µM [7] [%],inhibition at 10 µM [8] [%]
"CN1CC(N(Cc2ccc(F)cn2)C(=O)CN2C(=O)N[C@]3(C[C@@H](F)c4cc(-c5cnn(CC6COC6)c5)ccc43)C2=O)(C(F)(F)F)C1 [Example 25, 2-[(1′S,3′R)-3′-fluoro-5′-{1-[(oxetan-3-yl)methyl]-1H-pyrazol-4-yl}-2,5-dioxo-2′,3′-dihydrospiro[imidazolidine-4,1′-inden]-1-yl]-N-[(5-fluoropyridin-2-yl)methyl]-N-[1-methyl-3-(trifluoromethyl)azetidin-3-yl]acetamide]",1,6.1,5.7,672,–,–,–,1310,1630,19.6,424,59,41,9,2
